One compound from ChEMBL document CHEMBL5032513, “Propionamide Derivatives as Dual μ-Opioid Receptor Agonists and σ1 Receptor Antagonists for the Treatment of Pain” (J Med Chem, 2021) can be followed below.

Data set [1] is described as follows: Tmax in CD-1 mouse at 10 mg/kg, po by HPLC-MS/MS analysis. The class given is ADME, organism-based. The conditions noted are these: in vivo.
Data set [2] can be described thus: Distribution coefficient, logD of compound. The class given is physicochemical. The conditions noted are these: octanol/water.
Data set [3] can be described thus: Dissociation constant, pKa of compound. The class given is physicochemical.
Data set [4] in a line: Tmax in CD-1 mouse at 40 mg/kg, ip by HPLC-MS/MS analysis. It counts as ADME, organism-based. The note with it: in vivo.
Data set [5] is described as follows: Clearance in CD-1 mouse at 1 mg/kg, iv by HPLC-MS/MS analysis. The note with it: in vivo. It counts as ADME, organism-based.
A short description of data set [6]: Cmax in CD-1 mouse at 10 mg/kg, po by HPLC-MS/MS analysis. It counts as ADME, organism-based. The arrangement: route oral, dose 10 mg/kg. The conditions noted are these: in vivo.
The nature of data set [7]: Half life in CD-1 mouse at 40 mg/kg, ip by HPLC-MS/MS analysis. It counts as ADME, organism-based. The conditions noted are these: in vivo.
Data set [8] can be described thus: Oral bioavailability in CD-1 mouse plasma at 10 mg/kg by HPLC-MS/MS analysis. The class given is ADME, organism-based.
A short description of data set [9]: AUC in Wistar rat brain at 40 mg/kg, ip. The class given is ADME, organism-based. The arrangement: dose 40 mg/kg.
Data set [10] can be described thus: Bioavailability in CD-1 mouse plasma at 40 mg/kg, ip by HPLC-MS/MS analysis. It counts as ADME, organism-based.
The nature of data set [11]: Cmax in CD-1 mouse at 40 mg/kg, ip by HPLC-MS/MS analysis. The conditions noted are these: in vivo. The arrangement: route intraperitoneal, dose 40 mg/kg. The class given is ADME, organism-based.
Data set [12] can be described thus: Apparent permeability across apical to basolateral side in human Caco-2 cells. It counts as ADME, cell-based. On the technique in general: Caco-2 cells form a polarised layer with tight junctions and transporters.
A short description of data set [13]: AUC(0 to t) in CD-1 mouse at 10 mg/kg, po by HPLC-MS/MS analysis. The class given is ADME, organism-based. Also noted: dose 10 mg/kg. The conditions noted are these: in vivo.
Data set [14] is described as follows: AUC in Wistar rat plasma at 40 mg/kg, ip. It counts as ADME, organism-based. The arrangement: dose 40 mg/kg.
Data set [15] in a line: AUC(0 to t) in CD-1 mouse at 1 mg/kg, iv by HPLC-MS/MS analysis. The note with it: in vivo. Also noted: dose 1 mg/kg. The class given is ADME, organism-based.
A short description of data set [16]: AUC in CD-1 mouse at 1 mg/kg, iv by HPLC-MS/MS analysis. The conditions noted are these: in vivo. Also noted: dose 1 mg/kg. The class given is ADME, organism-based.
Data set [17] is described as follows: Lipophilicity, logP of compound. The class given is physicochemical. The note with it: octanol/water.
Data set [18] is described as follows: Half life in CD-1 mouse at 1 mg/kg, iv by HPLC-MS/MS analysis. It counts as ADME, organism-based. The conditions noted are these: in vivo.
Data set [19] can be described thus: AUC(0 to t) in CD-1 mouse at 40 mg/kg, ip by HPLC-MS/MS analysis. It counts as ADME, organism-based. Also noted: dose 40 mg/kg. The conditions noted are these: in vivo.
The nature of data set [20]: AUC in CD-1 mouse at 40 mg/kg, ip by HPLC-MS/MS analysis. It counts as ADME, organism-based. The arrangement: dose 40 mg/kg. The note with it: in vivo.
Data set [21] can be described thus: Volume of distribution at steady state in CD-1 mouse at 1 mg/kg, iv by HPLC-MS/MS analysis. It counts as ADME, organism-based. The conditions noted are these: in vivo, read-out: Vdss.

For `CCC(=O)N(CC1(N2CCN(CC(C)C)CC2)CCOCC1)c1cccc(C(F)(F)F)n1`, the Tmax (commonly the time at which the peak concentration occurs) is 30 min in data set [1] and 4.8 min in data set [4]. Further, in data set [2], the logD (in general, lipophilicity at a set pH, counting ionised and neutral species) stood at 2.2. The pKa (usually the pH at which an ionisable group is half protonated) in data set [3] came out at 8.9. Also, in data set [5], the clearance – broadly, the volume of plasma or blood freed of the substance per unit of time – was 180 mL/min/kg. For the same compound, the Cmax (in general, the maximum level reached in the sampled fluid or tissue) was found to be 130 ng/mL in data set [6] and 11300 ng/mL in data set [11]. Further, the half-life (usually the time needed for the level to fall by half in the phase considered) in [7] was 36 min; in data set [18], 24 min. In addition, the results for the bioavailability in data set [8] and in data set [10] were 13% and > 100%, respectively. In addition, the area under the curve (AUC) – broadly, concentration integrated over time – worked out at 2430 ng·h/mL in data set [9], 2810 ng·h/mL in data set [14], 93 ng·h/mL in data set [16] and 5960 ng·h/mL in data set [20]. Further, the Papp A→B – broadly, the apparent permeability from the apical to the basolateral side of a cell layer – in data set [12] worked out at 16.9 ×10⁻⁶ cm/s. Besides, the AUC(0-t) (commonly the area under the concentration-time curve up to a stated or last time point) turned out to be 122 ng·h/mL in data set [13], 92 ng·h/mL in data set [15] and 5950 ng·h/mL in [19]. The logP – broadly, a log measure of how a compound divides between an organic and an aqueous phase – in data set [17] turned out to be 3.7. Also, the Vd in data set [21] came out at 2.9 L/kg.
